Laboratory results from publication PMC13114161 (Antibiotics, 2026).
Where two headings read alike, the source gives them in different places.

Tests used:
[1] = tested on: P. aeruginosa ATCC 27853; experiment: Nitrocefin assay for outer-membrane permeabilization; format: cell-based, Pseudomonas aeruginosa
Source text: The significant toxicity of previously identified EPIs has prevented their clinical use. So, understanding the TXA11114 mechanism of action (MoA) was of paramount importance to eliminate off-target effects that may arise from other activities besides efflux pump inhibition. Historically EPIs are known to augment the action of traditional antibiotics by compromising the integrity of bacterial membranes, allowing increased drug accumulation. One of the major concerns of earlier EPIs was their ability to disrupt bacterial membranes. Two approaches were taken to investigate if membrane disruption played a role in the potentiation of antibiotics seen in Table 2 by TXA11114: (1) a flow cytometry-based propidium iodide (PI) assay to monitor inner-membrane permeabilization, and (2) a nitrocefin (NCF) assay to monitor outer-membrane permeabilization. NCF is a chromogenic cephalosporin that changes from yellow to red when the amide bond in the β-lactam ring is hydrolyzed by a β-lactamase. The rate of hydrolysis in intact cells is slow, as it is limited by the rate of diffusion of […]. […] Cells with intact membranes exclude PI and remain non-fluorescent, while cells with compromised membrane integrity allow PI to enter and bind to DNA, resulting in fluorescence. […]

[2] = tested on: P. aeruginosa ATCC 27853; experiment: Ethidium bromide efflux inhibition; format: cell-based, Pseudomonas aeruginosa
Source text: In the first assay, the efflux of ethidium bromide (EtBr) by P. aeruginosa cells is studied in the presence of different concentrations of TXA11114.

[3] = Plasma stability; format: in vitro ADME, human
Protocol: Plasma stability was assessed by incubating the compound in plasma at 37 °C and monitoring parent compound disappearance over time by LC-MS/MS. Half-life values were calculated assuming first-order kinetics.

[4] = Microsomal stability; format: in vitro ADME, human; settings: pH 7.4
Protocol: (§1) The metabolic stability of TXA11114 was evaluated in liver microsomes from human (HLM), dog (DLM), rat (RLM), and mouse (MLM). Test compound disappearance over time was monitored by LC-MS/MS. Verapamil (HLM and RLM) and imipramine (DLM and MLM) were used as positive controls. […] Aliquots (70 µL) were transferred to 96-well reaction plates and pre-incubated at 37 °C for 5 min. Reactions were initiated by adding 30 µL NADPH (final concentration 1 mM). Control incubations lacking NADPH were included to assess non-enzymatic degradation. Reactions were terminated at 0, 5, 15, 30, and 60 min by the addition of 100 µL ice-cold acetonitrile containing glipizide as an internal standard.

[5] = Microsomal stability; format: in vitro ADME; settings: rat, liver microsomes, pH 7.4; read-out: Microsome Stability t1/2
Protocol: as §1

[6] = target: T1, CYP2D6 (Homo sapiens, UniProt P10635); experiment: Cytochrome P450 inhibition; format: in vitro ADME; settings: human liver microsomes; read-out: CYP Inhibition IC50, 2D6
T1 construct: from tissue; host or cells: human liver microsomes
T1 sequence (P10635 whole entry): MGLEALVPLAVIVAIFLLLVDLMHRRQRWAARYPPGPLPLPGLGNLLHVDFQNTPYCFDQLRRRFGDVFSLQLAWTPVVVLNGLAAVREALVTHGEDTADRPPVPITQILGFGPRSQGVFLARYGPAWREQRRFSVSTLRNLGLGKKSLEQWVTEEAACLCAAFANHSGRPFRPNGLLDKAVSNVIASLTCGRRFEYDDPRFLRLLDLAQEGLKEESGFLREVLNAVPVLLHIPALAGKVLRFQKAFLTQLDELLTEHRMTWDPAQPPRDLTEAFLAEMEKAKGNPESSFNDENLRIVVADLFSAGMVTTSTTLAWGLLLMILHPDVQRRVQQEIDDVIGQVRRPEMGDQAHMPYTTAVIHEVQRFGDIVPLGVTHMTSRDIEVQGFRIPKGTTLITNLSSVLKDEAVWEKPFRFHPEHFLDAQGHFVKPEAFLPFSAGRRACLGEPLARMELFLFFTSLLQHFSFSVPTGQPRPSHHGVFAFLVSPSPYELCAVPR
Protocol: (§2) Inhibition of CYP1A2, CYP2D6, CYP2C9, CYP2C19, and CYP3A4 by TXA11114 was assessed in human liver microsomes by measuring the inhibition of probe substrate metabolism. Phenacetin, bufuralol, diclofenac, S-mephenytoin, and midazolam were used as probe substrates for CYP1A2, CYP2D6, CYP2C9, CYP2C19, and CYP3A4, respectively. Corresponding metabolites (acetaminophen, OH-bufuralol, 4-OH diclofenac, 4-OH mephenytoin, and 1-OH midazolam) were quantified by LC-MS/MS. Selective inhibitors (fluvoxamine (CYP1A2), quinidine (CYP2D6), sulfaphenazole (CYP2C9), ticlopidine (CYP2C19), and ketoconazole (CYP3A4)) were used as positive controls. Test and control compounds, prepared in DMSO at various concentrations, were spiked into 2× microsomal reaction mixtures, and 50 µL aliquots were transferred to individual wells. Probe substrates (25 µL, 4× concentration) were added to the respective wells and pre-incubated for 5 min at 37 °C. Reactions were initiated by the addition of 25 µL NADPH (4×) and incubated for 5 min (CYP3A4), 10 min (CYP1A2, CYP2D6, CYP2C9), or 20 min (CYP2C19). Reactions were quenched with 100 µL ice-cold acetonitrile containing glipizide as an internal standard. Plates were centrifuged at 4000 rpm for 15 min, and 100 µL supernatants were analyzed by LC-MS/MS in MRM mode. […] Percent inhibition was calculated as 100 − percent activity. IC50 values were determined using GraphPad Prism (version 5.02).

[7] = target: T2, CYP3A4 (Homo sapiens, UniProt P08684); experiment: Cytochrome P450 inhibition; format: in vitro ADME; settings: human liver microsomes; read-out: CYP Inhibition IC50, 3A4
T2 construct: from tissue; host or cells: human liver microsomes
T2 sequence (P08684 whole entry): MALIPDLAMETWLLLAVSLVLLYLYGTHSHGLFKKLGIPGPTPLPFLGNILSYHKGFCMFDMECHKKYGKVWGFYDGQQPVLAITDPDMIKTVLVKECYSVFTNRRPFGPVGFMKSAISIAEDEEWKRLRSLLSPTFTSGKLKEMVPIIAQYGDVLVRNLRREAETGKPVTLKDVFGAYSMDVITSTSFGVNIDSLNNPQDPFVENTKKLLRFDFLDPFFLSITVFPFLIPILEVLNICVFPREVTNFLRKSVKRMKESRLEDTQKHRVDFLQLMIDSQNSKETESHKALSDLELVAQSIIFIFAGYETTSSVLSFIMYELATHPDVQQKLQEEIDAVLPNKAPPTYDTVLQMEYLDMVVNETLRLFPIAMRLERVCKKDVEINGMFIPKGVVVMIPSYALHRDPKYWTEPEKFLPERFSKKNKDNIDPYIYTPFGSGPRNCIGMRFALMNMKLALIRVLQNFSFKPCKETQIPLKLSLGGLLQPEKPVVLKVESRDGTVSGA
Protocol: as §2

[8] = in vitro; format: cell-based; settings: human
Protocol: (§3) The cytotoxicity of TXA11114 was evaluated in HEK293T and A549 cell lines using the CellTiter-Glo™ assay (Promega, Madison, WI, USA). HEK293T cells (human embryonic kidney cells transformed with sheared adenovirus 5 DNA and expressing SV40 large T antigen) and A549 cells (human alveolar basal epithelial adenocarcinoma cell line; hypotriploid with a modal chromosome number of 66) were obtained from Sai Life Sciences Ltd. (Hyderabad, India). These cell lines are well-characterized and consistent with commonly used reference lines (e.g., A549, ATCC CCL-185).
(§4) TXA11114 was tested in a dose–response format with a top concentration of 20 µM using 2-fold serial dilutions in triplicate. Doxorubicin and staurosporine were included as reference controls. Cells (1200 cells/well in 27 µL complete medium) were seeded into 384-well plates and incubated overnight at 37 °C with 5% CO2. The following day, cells were treated with 3 µL of 10× serially diluted compounds. After a 24 h incubation, CellTiter-Glo reagent was added, and plates were gently shaken for 15–20 min at room temperature. Luminescence was measured using an EnVision multimode plate reader (PerkinElmer, Thane, India).

[9] = in vitro; format: cell-based; settings: human; remark: listed apart in the source
Protocol: as §3, §4

[10] = Initial nephrotoxicity screen (BUN, creatinine); format: in vivo, Sprague Dawley rats; settings: male rats, 10 mg/kg IV QD, 24 h after dosing
Protocol: BUN and CRE analyses were conducted by SRI International (Menlo Park, CA, USA). Adult male Sprague Dawley rats (n = 3 per group) received TXA11114 (10 mg/kg, IV, QD), and blood samples were collected 24 h after dosing.

## NCC(F)C[C@@H](N)CNC(=O)c1cc2ccc(-c3ccc(F)cc3)cc2[nH]1 (stereo partly drawn) [TXA11114, N-((2R)-2,5-diamino-4-fluoropentyl)-6-(4-fluorophenyl)-1H-indole-2-carboxamide]
[1]
  Concentrations at which impact on NCF hydrolysis is minimal: below 25 μg/mL
[2]; elevated inoculum of EtBr assay (approximately 1000-fold greater)
  Minimal potentiation concentration (MPC): 12.5 µg/mL
[2]; increasing TXA11114 concentration
  EtBr efflux blockade (fluorescence): fluorescence intensity increased proportionally
[3]; across four species (human, dog, rat, and mouse), read-out: Plasma stability half-life
  half-life: > 2 h
[3]; human, read-out: Plasma stability t1/2
  half-life: > 2 h
[4]; human, liver microsomes, read-out: Microsome Stability t1/2
  half-life at 1 µM: > 1 h
[4]; human and rat liver microsomes, read-out: Microsomal stability half-life
  half-life at 1 µM: > 1 h
[5]
  half-life at 1 µM: > 1 h
[6]
  IC50: > 100 µM
[7]
  IC50: 63 µM
[8]
  IC50 at 24 h: > 20 µM
[9]
  IC50 at 24 h: > 20 µM
[10]
  Blood Urea Nitrogen: 15.3 mg/dL
  Creatinine: 0.22 mg/dL
